Molecular target: FXR (Homo sapiens (Human), UniProt Q96RI1)
Test: FXR EC50 (FXR agonist activity reported with each example)
Assay type: cell-based

Sequence of FXR (Q96RI1 262-486): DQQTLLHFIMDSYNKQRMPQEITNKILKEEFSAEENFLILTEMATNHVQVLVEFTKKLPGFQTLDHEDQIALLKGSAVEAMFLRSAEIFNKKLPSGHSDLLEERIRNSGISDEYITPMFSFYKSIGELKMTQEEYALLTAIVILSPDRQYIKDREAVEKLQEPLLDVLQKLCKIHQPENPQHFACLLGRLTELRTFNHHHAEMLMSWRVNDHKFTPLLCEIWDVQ

SMILES	EC50 [nM]
O=C(O)C1(c2cccc(C(O)C34CCC(OCc5c(-c6c(Cl)cccc6Cl)noc5C5CC5)(CC3)CC4)c2)CC1 (stereo not shown) [Example 129, 1-(3-((4-((5-cyclopropyl-3-(2,6-dichlorophenyl)isoxazol-4-yl)methoxy)bicyclo[2.2.2]octan-1-yl)(hydroxy)methyl)phenyl)cyclopropane-1-carboxylic acid]	3000
O=C(O)c1cccc(C#CC23CCC(OCc4c(-c5c(Cl)cccc5Cl)noc4C4CC4)(CC2)CC3)c1 [Example 130, 3-((4-((5-cyclopropyl-3-(2,6-dichlorophenyl)isoxazol-4-yl)methoxy)bicyclo[2.2.2]octan-1-yl)ethynyl)benzoic acid]	68
O=C(O)c1cccc(-n2cc(C34CCC(OCc5c(-c6c(Cl)cccc6Cl)noc5C5CC5)(CC3)CC4)nn2)c1 [Example 131, 3-(4-(4-((5-cyclopropyl-3-(2,6-dichlorophenyl)isoxazol-4-yl)methoxy)bicyclo[2.2.2]octan-1-yl)-1H-1,2,3-triazol-1-yl)benzoic acid]	460
O=C(O)c1ccnc(C#CC23CCC(OCc4c(-c5c(Cl)cccc5Cl)noc4C4CC4)(CC2)CC3)c1 [Example 132, 2-((4-((5-cyclopropyl-3-(2,6-dichlorophenyl)isoxazol-4-yl)methoxy)bicyclo[2.2.2]octan-1-yl)ethynyl)isonicotinic acid]	3500
O=C(O)c1cc(F)c2nc(C#CC34CCC(OCc5c(-c6c(Cl)cncc6Cl)noc5C5CC5)(CC3)CC4)sc2c1 [Example 133, 2-((4-((5-cyclopropyl-3-(3,5-dichloropyridin-4-yl)isoxazol-4-yl)methoxy)bicyclo[2.2.2]octan-1-yl)ethynyl)-4-fluorobenzo[d]thiazole-6-carboxylic acid]	180
O=C(O)c1ccc2nc(C34CCC(OCc5c(-c6c(Cl)cccc6Cl)noc5C5CC5)(CC3)CC4)ccc2c1 [Example 134, 2-(4-((5-cyclopropyl-3-(2,6-dichlorophenyl)isoxazol-4-yl)methoxy)bicyclo[2.2.2]octan-1-yl)quinoline-6-carboxylic acid]	83
Cn1cc(C(=O)O)c2ccc(C34CCC(OCc5c(-c6c(Cl)cccc6Cl)noc5C5CC5)(CC3)CC4)nc21 [Example 135, 6-(4-((5-cyclopropyl-3-(2,6-dichlorophenyl)isoxazol-4-yl)methoxy)bicyclo[2.2.2]octan-1-yl)-1-methyl-1H-pyrrolo[2,3-b]pyridine-3-carboxylic acid]	9
O=C(O)c1ccc2nc(C34CCC(OCc5c(-c6c(Cl)cccc6Cl)noc5C5CC5)(CC3)CC4)ccc2n1 [Example 136, 6-(4-((5-cyclopropyl-3-(2,6-dichlorophenyl)isoxazol-4-yl)methoxy)bicyclo[2.2.2]octan-1-yl)-1,5-naphthyridine-2-carboxylic acid]	36
O=C(O)c1ccnc(C23CCC(OCc4c(-c5c(Cl)cccc5Cl)noc4C4CC4)(CC2)CC3)c1 [Example 137, 2-(4-((5-cyclopropyl-3-(2,6-dichlorophenyl)isoxazol-4-yl)methoxy)bicyclo[2.2.2]octan-1-yl)isonicotinic acid]	420
O=C(O)c1ccc(C23CCC(OCc4c(-c5c(Cl)cccc5Cl)noc4C4CC4)(CC2)CC3)nc1 [Example 138, 6-(4-((5-cyclopropyl-3-(2,6-dichlorophenyl)isoxazol-4-yl)methoxy)bicyclo[2.2.2]octan-1-yl)nicotinic acid]	440
O=C(O)c1cccc2c1CCN(C(=O)C13CCC(OCc4c(-c5c(Cl)cccc5Cl)noc4C4CC4)(CC1)CC3)C2 [Example 139, 2-(4-((5-cyclopropyl-3-(2,6-dichlorophenyl)isoxazol-4-yl)methoxy)bicyclo[2.2.2]octane-1-carbonyl)-1,2,3,4-tetrahydroisoquinoline-5-carboxylic acid]	1400
O=C(O)c1ccc2c(c1)CCN(C(=O)C13CCC(OCc4c(-c5c(Cl)cccc5Cl)noc4C4CC4)(CC1)CC3)C2 [Example 140, 2-(4-((5-cyclopropyl-3-(2,6-dichlorophenyl)isoxazol-4-yl)methoxy)bicyclo[2.2.2]octane-1-carbonyl)-1,2,3,4-tetrahydroisoquinoline-6-carboxylic acid]	1700
O=C(O)c1ccc(CNC(=O)C23CCC(OCc4c(-c5c(Cl)cccc5Cl)noc4C4CC4)(CC2)CC3)cc1 [Example 141, 4-((4-((5-cyclopropyl-3-(2,6-dichlorophenyl)isoxazol-4-yl)methoxy)bicyclo[2.2.2]octane-1-carboxamido)methyl)benzoic acid]	2800
O=C(O)c1ccccc1CNC(=O)C12CCC(OCc3c(-c4c(Cl)cccc4Cl)noc3C3CC3)(CC1)CC2 [Example 142, 2-((4-((5-cyclopropyl-3-(2,6-dichlorophenyl)isoxazol-4-yl)methoxy)bicyclo[2.2.2]octane-1-carboxamido)methyl)benzoic acid]	1300
O=C(O)c1cccc(CNC(=O)C23CCC(OCc4c(-c5c(Cl)cccc5Cl)noc4C4CC4)(CC2)CC3)c1 [Example 143, 3-((4-((5-cyclopropyl-3-(2,6-dichlorophenyl)isoxazol-4-yl)methoxy)bicyclo[2.2.2]octane-1-carboxamido)methyl)benzoic acid]	1300
CN(Cc1ccccc1C(=O)O)C(=O)C12CCC(OCc3c(-c4c(Cl)cccc4Cl)noc3C3CC3)(CC1)CC2 [Example 144, 2-((4-((5-cyclopropyl-3-(2,6-dichlorophenyl)isoxazol-4-yl)methoxy)-N-methylbicyclo[2.2.2]octane-1-carboxamido)methyl)benzoic acid]	160
O=C(O)CC1CCN(C(=O)C23CCC(OCc4c(-c5c(Cl)cccc5Cl)noc4C4CC4)(CC2)CC3)CC1 [Example 145, 2-(1-(4-((5-cyclopropyl-3-(2,6-dichlorophenyl)isoxazol-4-yl)methoxy)bicyclo[2.2.2]octane-1-carbonyl)piperidin-4-yl)acetic acid]	3800

SMILES	EC50 [nM]
O=C(O)c1cccc2c1CN(C(=O)C13CCC(OCc4c(-c5c(Cl)cccc5Cl)noc4C4CC4)(CC1)CC3)CC2 [Example 146, 2-(4-((5-cyclopropyl-3-(2,6-dichlorophenyl)isoxazol-4-yl)methoxy)bicyclo[2.2.2]octane-1-carbonyl)-1,2,3,4-tetrahydroisoquinoline-8-carboxylic acid]	3100
O=C(O)c1cccc(-c2noc(C34CCC(COCc5c(-c6c(Cl)cccc6Cl)noc5C5CC5)(CC3)CC4)n2)c1 [Example 151, 3-(5-(4-(((5-cyclopropyl-3-(2,6-dichlorophenyl)isoxazol-4-yl)methoxy)methyl)bicyclo[2.2.2]octan-1-yl)-1,2,4-oxadiazol-3-yl)benzoic acid]	150
O=C(O)c1ccc(-c2noc(C34CCC(COCc5c(-c6c(Cl)cccc6Cl)noc5C5CC5)(CC3)CC4)n2)cc1 [Example 152]	140
O=C(O)c1cccc(-c2noc(C34CCC(COCc5c(-c6ccccc6OC(F)(F)F)noc5C5CC5)(CC3)CC4)n2)c1 [Example 153]	320
O=C(O)c1ccc(-c2noc(C34CCC(COCc5c(-c6ccccc6OC(F)(F)F)noc5C5CC5)(CC3)CC4)n2)cc1 [Example 154]	960
COC(=O)c1ccc(-c2noc(C34CCC(COCc5c(-c6ccccc6OC(F)(F)F)noc5C5CC5)(CC3)CC4)n2)cc1 [Example 155]	2500
COC(=O)c1ccc(-c2noc(C34CCC(COCc5c(-c6c(Cl)cccc6Cl)noc5C5CC5)(CC3)CC4)n2)cc1 [Example 156]	1700
O=C(O)c1cccc(-c2noc(C34CCC(/C=C/c5c(-c6c(Cl)cccc6Cl)noc5C5CC5)(CC3)CC4)n2)c1 [Example 159, (E)-3-(5-(4-(2-(5-cyclopropyl-3-(2,6-dichlorophenyl)isoxazol-4-yl)vinyl)bicycle[2.2.2]octan-1-yl)-1,2,4-oxadiazol-3-yl)benzoic acid]	14
O=C(O)c1ccc(-c2noc(C34CCC(/C=C/c5c(-c6c(Cl)cccc6Cl)noc5C5CC5)(CC3)CC4)n2)cc1 [Example 160]	51
COC(=O)c1ccc(-c2noc(C34CCC(C=Cc5c(-c6c(Cl)cccc6Cl)noc5C5CC5)(CC3)CC4)n2)cc1 [Example 161]	950
O=C(O)c1csc(C23CCC(COCc4c(-c5c(Cl)cccc5Cl)noc4C4CC4)(CC2)CC3)n1 [Example 162, 2-(4-(((5-cyclopropyl-3-(2,6-dichlorophenyl)isoxazol-4-yl)methoxy)methyl)bicyclo[2.2.2]octan-1-yl)thiazole-4-carboxylic acid]	1300
O=C(O)c1cccc(-c2noc(C34CCC(/C=C\c5c(-c6c(Cl)cccc6Cl)noc5C5CC5)(CC3)CC4)n2)c1 [Example 163, (Z)-3-(5-(4-(2-(5-cyclopropyl-3-(2,6-dichlorophenyl)isoxazol-4-yl)vinyl)bicyclo[2.2.2]octan-1-yl)-1,2,4-oxadiazol-3-yl)benzoic acid]	211
O=C(O)c1ccc(-c2noc(C34CCC(/C=C\c5c(-c6c(Cl)cccc6Cl)noc5C5CC5)(CC3)CC4)n2)cc1 [Example 164]	1600
O=C(O)c1cccc(-c2noc(C34CCC(CNc5c(-c6c(Cl)cccc6Cl)noc5C5CC5)(CC3)CC4)n2)c1 [Example 166, 3-(5-(4-(((5-cyclopropyl-3-(2,6-dichlorophenyl)isoxazol-4-yl)amino)methyl)bicyclo[2.2.2]octan-1-yl)-1,2,4-oxadiazol-3-yl)benzoic acid]	580
O=C(O)c1ccc(-c2noc(C34CCC(CNc5c(-c6c(Cl)cccc6Cl)noc5C5CC5)(CC3)CC4)n2)cc1 [Example 167]	530
O=C(O)c1ccc2nc(C34CCC(COCc5c(-c6c(Cl)cccc6Cl)noc5C5CC5)(CC3)CC4)sc2c1 [Example 168, 2-(4-(((5-cyclopropyl-3-(2,6-dichlorophenyl)isoxazol-4-yl)methoxy)methyl)bicyclo[2.2.2]octan-1-yl)benzo[d]thiazole-6-carboxylic acid]	1200
O=C(O)c1ccc(NC(=O)C23CCC(COCc4c(-c5c(Cl)cccc5Cl)noc4C4CC4)(CC2)CC3)c(Cl)c1 [Example 170, 3-chloro-4-(4-(((5-cyclopropyl-3-(2,6-dichlorophenyl)isoxazol-4-yl)methoxy)methyl)bicyclo[2.2.2]octane-1-carboxamido)benzoic acid]	636

Reference: patent US10730863B2, “Bridged bicyclic compounds as farnesoid X receptor modulators” (BRISTOL-MYERS SQUIBB COMPANY, priority 2017, dated 2020)
